One experiment deals with T1, Recombinant IDO1 (Homo sapiens, UniProt P14902).
T1 construct: His tag (N); made in house; host or cells: E. coli
Put plainly: IDO1 enzymatic assay. The following applies: 50 nM IDO1, 1.3 mM D-tryptophan, read-out: Enzyme IC50 (nM) IDO1. The format is biochemical. Put shortly: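 N-terminally His-tagged enzyme from E. coli (50 nM) was incubated with compound, 1.3 mM D-tryptophan, 5 mM ascorbate, 6.25 μM methylene blue and 0.4 mg/mL catalase in 50 mM potassium phosphate pH 7.5, 0.1% BSA for 1.5 h at 24° C. N′-formylkynurenine formation was followed at 321 nm for 1 h; IC50 from rate slopes.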

Experiment [1] addresses T2, cellular IDO1 in HeLa cells (Homo sapiens, UniProt P14902).
T2 construct: endogenous in cells; host or cells: HeLa cells (American Type Tissue Culture Collection), induced with human recombinant IFN-γ
The experiment is described as follows: HeLa cell-based IDO1 Kyn (kynurenine) production assay. Particulars: IFN-γ 100 ng/mL, 48 hours. Put shortly: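 IFN-γ-induced HeLa cells (100 ng/mL) in phenol red-free DMEM with 0.4 mM L-Trp, compounds added together with IFN-γ, 48 h at 37 °C. Supernatant Kyn read at 480 nm after TCA precipitation and 4-(dimethylamino)benzaldehyde reaction. IC50 from four-parameter logistic fit.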

Another experiment concerns the target T3, Recombinant TDO (Homo sapiens, UniProt P48775).
T3 construct: His tag (C); made in house; host or cells: E. coli
The experiment is described as follows: TDO enzymatic assay. Type of experiment: biochemical. Particulars: 100 nM TDO, 0.5 mM L-tryptophan, read-out: Enzyme IC50 (nM) TDO. On the procedure:
Recombinant TDO was overexpressed and purified from E. coli cells with a C-terminal His tag. TDO enzymatic assay was performed using the same methodology as IDO1 enzymatic assay except that 100 nM TDO and 0.5 mM L-tryptophan (Km concentration) were used in the TDO assay.

[2] abbreviates: Table 1, 5-substituted imidazo[1,5-a]pyridines.
[3] abbreviates: Table 2, 8-substituted imidazo[1,5-a]pyridines.

Where two headings read alike, the source gives them in different places. A value given as a limit tells only on which side of the number the result lay.

T1 sequence (P14902 whole entry): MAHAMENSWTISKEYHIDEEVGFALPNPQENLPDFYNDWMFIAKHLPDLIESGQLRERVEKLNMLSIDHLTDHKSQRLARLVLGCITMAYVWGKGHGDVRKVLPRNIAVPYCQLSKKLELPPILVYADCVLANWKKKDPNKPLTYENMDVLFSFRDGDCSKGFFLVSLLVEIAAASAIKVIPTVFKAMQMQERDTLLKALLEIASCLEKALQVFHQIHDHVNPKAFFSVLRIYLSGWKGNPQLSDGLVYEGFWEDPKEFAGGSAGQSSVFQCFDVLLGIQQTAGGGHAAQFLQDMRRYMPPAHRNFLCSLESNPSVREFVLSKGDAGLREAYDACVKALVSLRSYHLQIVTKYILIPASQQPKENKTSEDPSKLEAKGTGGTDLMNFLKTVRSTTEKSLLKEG
T2 sequence (P14902 whole entry): as above
T3 sequence (P48775 whole entry): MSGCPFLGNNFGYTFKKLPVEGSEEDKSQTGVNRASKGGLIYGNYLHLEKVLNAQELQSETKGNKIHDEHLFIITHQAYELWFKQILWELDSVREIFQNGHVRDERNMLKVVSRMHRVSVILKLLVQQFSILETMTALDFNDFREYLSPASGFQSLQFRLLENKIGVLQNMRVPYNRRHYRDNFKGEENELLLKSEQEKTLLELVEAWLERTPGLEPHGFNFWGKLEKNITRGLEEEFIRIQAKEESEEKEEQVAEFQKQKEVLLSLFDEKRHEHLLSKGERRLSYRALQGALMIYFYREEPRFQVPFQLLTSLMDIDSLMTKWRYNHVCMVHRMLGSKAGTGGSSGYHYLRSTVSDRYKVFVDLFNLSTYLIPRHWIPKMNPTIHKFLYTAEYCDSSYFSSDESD

For the molecule `OC(c1c(I)ccc2cncn12)C1CCCCC1` (single isomer, unassigned) [Example A125a], the IC50 turned out to be 15 nM at Recombinant IDO1 (setting [2]) and 4500 nM on Recombinant TDO (setting [2]). The molecule further registered an EC50 in experiment [1] (setting [2]) of 138 nM.

As to `OC(c1c(I)ccc2cncn12)C1CCCCC1` (single isomer, unassigned) [Example A125b], the IC50 on Recombinant IDO1 (setting [2]) is 12000 nM; at Recombinant TDO (setting [2]), 46000 nM. The same molecule came in with an EC50 in experiment [1] (setting [2]) above 10000 nM.

Consider `OC(c1c(C2CC2)ccc2cncn12)C1CCCCC1` (single isomer, unassigned) [Example A126a], for which the values for the IC50 at Recombinant IDO1 (setting [2]) and at Recombinant TDO (setting [2]) were 36 nM and 14000 nM, respectively. The same molecule showed a half-maximal effective concentration (EC50) in experiment [1] (setting [2]) of 156 nM.

Take `OC(c1c(C2CC2)ccc2cncn12)C1CCCCC1` (single isomer, unassigned) [Example A126b]: the IC50 came out at 6800 nM at Recombinant IDO1 (setting [2]) and 74000 nM on Recombinant TDO (setting [2]). Moreover, in experiment [1] (setting [2]), the EC50 was above 10000 nM.

For `OC(CC1CCCCC1)c1c(C(F)(F)F)ccc2cncn12` (single isomer, unassigned) [Example A127a], the IC50 was 17 nM on Recombinant IDO1 (setting [2]) and 15000 nM at Recombinant TDO (setting [2]). Moreover, in experiment [1] (setting [2]), the EC50 came to 169 nM.

With `OC(CC1CCCCC1)c1c(C(F)(F)F)ccc2cncn12` (single isomer, unassigned) [Example A127b], the IC50 at Recombinant IDO1 (setting [2]) was found to be 3200 nM; on Recombinant TDO (setting [2]), 25000 nM. A half-maximal response in experiment [1] (setting [2]) (EC50) required 8010 nM.

For the molecule `OC(c1c(C2CC2)ccc2cncn12)C1CCCCC1` (single isomer, unassigned) [Example A129a], the concentration for half-maximal inhibition (IC50) on Recombinant IDO1 (setting [2]) amounted to 14 nM; on Recombinant TDO (setting [2]), 1700 nM. Also, in experiment [1] (setting [2]), the EC50 was determined as 38 nM.

Regarding `OC(c1c(C2CC2)ccc2cncn12)C1CCCCC1` (single isomer, unassigned) [Example A129b], the figures for the IC50 at Recombinant IDO1 (setting [2]) and at Recombinant TDO (setting [2]) were 21000 nM and 37000 nM, respectively. For the same molecule, in experiment [1] (setting [2]), the EC50 was above 10000 nM.

As for `OC(c1c(Cl)c(Cl)cc2cncn12)C1CCCCC1` (single isomer, unassigned) [Example A143a], the figures for the IC50 on Recombinant IDO1 (setting [2]) and at Recombinant TDO (setting [2]) were 20 nM and 690 nM, respectively. The midpoint of the response in experiment [1] (setting [2]), the EC50, lay at 274 nM.

Regarding `OC(c1c(Cl)c(Cl)cc2cncn12)C1CCCCC1` (single isomer, unassigned) [Example A143b], the IC50 was 3400 nM at Recombinant IDO1 (setting [2]) and 14000 nM at Recombinant TDO (setting [2]). In experiment [1] (setting [2]), this molecule gave an EC50 of 6100 nM.

`OC(CC1CCCCC1)c1c(Cl)c(Cl)cc2cncn12` (single isomer, unassigned) [Example A144a]: the IC50 is above 100000 nM on Recombinant IDO1 (setting [2]) and 23000 nM at Recombinant TDO (setting [2]). This molecule registered an EC50 in experiment [1] (setting [2]) above 10000 nM.

Take `OC(CC1CCCCC1)c1c(Cl)c(Cl)cc2cncn12` (single isomer, unassigned) [Example A144b]: the values for the IC50 on Recombinant IDO1 (setting [2]) and on Recombinant TDO (setting [2]) were 14 nM and 240 nM, respectively. In experiment [1] (setting [2]), this molecule registered an EC50 of 291 nM.

Regarding `Cc1ccn2cncc2c1C(O)C1CCCCC1` (single isomer, unassigned) [Example B102a], the IC50 at Recombinant IDO1 (setting [3]) was 15 nM; at Recombinant TDO (setting [3]) it was 150 nM. In experiment [1] (setting [3]), this molecule had an EC50 of 995 nM.

Consider `Cc1ccn2cncc2c1C(O)C1CCCCC1` (single isomer, unassigned) [Example B102b], for which the IC50 on Recombinant IDO1 (setting [3]) was 3100 nM; at Recombinant TDO (setting [3]), 31000 nM. This molecule also registered an EC50 in experiment [1] (setting [3]) above 10000 nM.

`OC(c1c(C2CC2)ccn2cncc12)C1CCCCC1` (single isomer, unassigned) [Example B107a]: the results for the IC50 on Recombinant IDO1 (setting [3]) and at Recombinant TDO (setting [3]) were 47 nM and 1300 nM, respectively. This molecule gave an EC50 in experiment [1] (setting [3]) of 136 nM.

`O[C@@H](c1c(C2CC2)ccn2cncc12)C1CCCCC1` (single isomer, unassigned) [Example B107b]: the IC50 on Recombinant IDO1 (setting [3]) came out at 21000 nM; at Recombinant TDO (setting [3]) it was 11000 nM. The molecule also showed an EC50 in experiment [1] (setting [3]) above 10000 nM.

Turning to `OC(c1cccc2cncn12)C1CCCCC1` (stereo not drawn) [Example A001, Cyclohexyl(imidazo[1,5-a]pyridin-5-yl)methanol], the IC50 at Recombinant IDO1 (setting [2]) was found to be 150 nM; on Recombinant TDO (setting [2]) it was 260 nM. Besides, the EC50 in experiment [1] (setting [2]) is above 10000 nM.

As for `OC(c1cccc2cncn12)C1CCCCCC1` (stereo not drawn) [Example A009, Cycloheptyl(imidazo[1,5-a]pyridin-5-yl)methanol], the IC50 amounted to 110 nM on Recombinant IDO1 (setting [2]) and 260 nM at Recombinant TDO (setting [2]). In experiment [1] (setting [2]), this molecule yielded an EC50 above 10000 nM.

As to `c1cc(CC2CCCCC2)n2cncc2c1` [Example A015, 5-(cyclohexylmethyl)imidazo[1,5-a]pyridine], the IC50 on Recombinant IDO1 (setting [2]) came out at 540 nM; on Recombinant TDO (setting [2]), 260 nM. In experiment [1] (setting [2]), the EC50 was above 10000 nM.

In the case of `FC(c1cc(Cl)cc2cncn12)C1CCC(F)(F)CC1` (stereo not drawn) [Example A020, 7-chloro-5-((4,4-difluorocyclohexyl)fluoromethyl)imidazo[1,5-a]pyridine], the IC50 at Recombinant IDO1 (setting [2]) was 8900 nM; on Recombinant TDO (setting [2]) it was 350 nM. In addition, the EC50 in experiment [1] (setting [2]) is above 10000 nM.

On to `OC(c1ccc(F)c2cncn12)C1CCCCC1` (stereo not drawn) [Example A022, cyclohexyl(8-fluoroimidazo[1,5-a]pyridin-5-yl)methanol], for which the values for the IC50 on Recombinant IDO1 (setting [2]) and on Recombinant TDO (setting [2]) were 1200 nM and 570 nM, respectively. The EC50 in experiment [1] (setting [2]) was above 10000 nM.

On to `Clc1cc(CC2CCCCC2)n2cncc2c1` [Example A026, 7-chloro-5-(cyclohexylmethyl)imidazo[1,5-a]pyridine], for which the IC50 at Recombinant IDO1 (setting [2]) was 107 nM; on Recombinant TDO (setting [2]), 73 nM. For the same molecule, in experiment [1] (setting [2]), the EC50 is above 10000 nM.

On to `OC(c1cc(Cl)cc2cncn12)C1CCCCC1` (stereo not drawn) [Example A101, (7-chloroimidazo[1,5-a]pyridin-5-yl)(cyclohexyl)methanol], for which the IC50 at Recombinant IDO1 (setting [2]) was found to be 29 nM; at Recombinant TDO (setting [2]), 68 nM. Further, the EC50 in experiment [1] (setting [2]) turned out to be 1360 nM.

On to `O[C@H](c1cc(Cl)cc2cncn12)C1CCCCC1` [Example A101a, (S)-(7-chloroimidazo[1,5-a]pyridin-5-yl)(cyclohexyl)methanol], for which the IC50 amounted to 9.6 nM on Recombinant IDO1 (setting [2]) and 29 nM at Recombinant TDO (setting [2]). This molecule came in with an EC50 in experiment [1] (setting [2]) of 326 nM.

As for `OC(CC1CCCCC1)c1cc(Cl)cc2cncn12` (stereo not drawn) [Example A102, 1-(7-chloroimidazo[1,5-a]pyridin-5-yl)-2-cyclohexylethan-1-ol], the IC50 was 67 nM at Recombinant IDO1 (setting [2]) and 300 nM on Recombinant TDO (setting [2]). In addition, the EC50 in experiment [1] (setting [2]) stood at 1760 nM.

Consider `OC(c1cc(Cl)cc2cncn12)C1CCCC1` (stereo not drawn) [Example A103, (7-chloroimidazo[1,5-a]pyridin-5-yl)(cyclopentyl)methanol], for which the IC50 at Recombinant IDO1 (setting [2]) and on Recombinant TDO (setting [2]) was 22 nM in each case. For the same molecule, a half-maximal response in experiment [1] (setting [2]) (EC50) required 1510 nM.

With `CC1CCC(C(O)c2cc(Cl)cc3cncn23)CC1` (stereo not drawn) [Example A104, (7-chloroimidazo[1,5-a]pyridin-5-yl)(4-methylcyclohexyl)methanol], the IC50 on Recombinant IDO1 (setting [2]) is 29 nM; at Recombinant TDO (setting [2]) it was 270 nM. For the same molecule, in experiment [1] (setting [2]), the concentration for a half-maximal effect (EC50) came to 2180 nM.

Take `O=C(NC1CCCC(C(O)c2cc(Cl)cc3cncn23)C1)c1cccc(Cl)c1` (stereo not drawn) [Example A105, 3-chloro-N-(3-((7-chloroimidazo[1,5-a]pyridin-5-yl)(hydroxy)methyl)cyclohexyl)benzamide]: the IC50 at Recombinant IDO1 (setting [2]) was 127 nM; at Recombinant TDO (setting [2]), 1600 nM. In experiment [1] (setting [2]), this molecule yielded an EC50 of 1690 nM.

Take `OC(c1cc(I)cc2cncn12)C1CCCCC1` (stereo not drawn) [Example A107, cyclohexyl(7-iodoimidazo[1,5-a]pyridin-5-yl)methanol 2,2,2-trifluoroacetate]: the IC50 at Recombinant IDO1 (setting [2]) came to 26 nM; at Recombinant TDO (setting [2]) it was 110 nM. In experiment [1] (setting [2]), this molecule displayed an EC50 of 968 nM.
